# Experimental data as given in patent publication US11179361B2, “Methods of quantifying N2-(1-carboxyethyl)-2′-deoxy-guanosine (CEdG) and synthesis of oligonucleotides containing CEdG” (CITY OF HOPE, priority 2008, dated 2021).
# Experiments:
# [1] = Stability of CEdG to acid-catalyzed depurination and sidechain isomerization; details: 37° C.; for racemization of the sidechain stereocenter / interconversion of isomers: acidic hydrolysis, 1 M AcOH
# Procedure: (§1) A 1.25 mM solution of CEdG-A, B or dG in 100 μL of 1M AcOH (pH 2.4) was stirred at 37° C. Aliquots (10 μl) were removed periodically and added to 40 μL of 2M TEAA (pH 7.0). HPLC product analyses were performed using an Alltech HS HyperPrep 100 BDS C18 8μ column. A gradient of 0 to 4% CH3CN over 5 min was followed by 6.5% CH3CN over 30 min. TEAA (pH 7) was kept constant at 50 mM. The ratio of free base (CEGuanine or Guanine) to intact nucleoside (CEdG or dG) was calculated by integration of the corresponding HPLC peaks (see inset in FIG. 4).
# (§2) Purified stereoisomers of synthetic CEdG were subjected to acidic conditions (1 M AcOH at 37° C.) and the extent of released free base and diastereomer interconversion was monitored by HPLC as a function of time.
# urinary CEdG = assay: Urinary CEdG measurement in type 1 (streptozoticin) diabetic rats given LR-90; assay type: in vivo, Sprague-Dawley rats
# Procedure: All animal studies were carried out in compliance with the policies outlined in NIH Publication No. 85-23 “Guide for the Care and Use of Laboratory Animals.” Male Sprague-Dawley rats were rendered diabetic by injection of streptozoticin and maintained as previously described.^18 AGE inhibitor LR-90 was administered ad libitum at concentrations ranging from 2.5-50 mg/L. Rats were housed in metabolic cages and urine was collected over a 24 hour period with several drops of toluene to inhibit microbial growth. Urine samples were stored at −80° C. prior to LC-MS/MS analysis for CEdG. The data in FIG. 5 represent 3 replicates from n different animals: non-diabetic controls, n=6; non-diabetic treated with 50 mg/L LR-90, n=5; diabetic control, n=3. For diabetic rats treated with varying doses of LR-90: 2.5 mg/L, n=4; 10 mg/L, n=5; 25 mg/L, n=6; 50 mg/L, n=8.
# CEdG was concentrated from urine by solid phase extraction. A 1 ml strata-X-C cartridge was pre-conditioned by the sequential addition of 1 ml MeOH/CH3CN (1:1) followed by 2×1 ml 2% H3PO4. Then ^15N5-CEdG was added as an internal standard (final concentration 5 μg/ml), the sample was acidified with 10 μl of 86% H3PO4, and finally 0.4 mL of urine was introduced via suction filtration. The cartridge was then washed with sequential additions of 1 ml 0.1% H3PO4 and 1 ml MeOH and then dried under vacuum for 1 minute. Finally, CEdG/^15N5-CEdG containing fractions were eluted from the cartridge with 1 mL 3% NH4OH in MeOH:CH3CN (2:8 v/v). The eluent was evaporated to dryness in a centrifugal concentrator and reconstituted with 200 μl 0.1% formic acid prior to LC-MS/MS injection.
# CEdG quantification was performed using LC-MS/MS. Measurement of 8-oxo-dG was performed as previously described.^19 CEdG and ^15N5-CEdG (internal standard) were synthesized and purified. Measurements were performed using an Agilent 1100 Capillary LC system (Agilent Technologies, Palo Alto, Calif.) in line with a Micromass Quattro Ultima Triple Quadrupole Mass Spectrometer (Micromass, Beverly, Mass.) operating in positive-ion mode. […] The mass transitions monitored for CEdG and ^15N5-CEdG were 340.3→224.3 and 345.4→229.4 respectively. […] The lower limit of quantitation for CEdG, defined as a peak height of ≥5× baseline noise, was 0.1 ng/ml in the starting solution or 0.2 pg on column.
# A diabetic animal model was used to examine the relationship between glycemic status and CEdG levels. […] 8-oxo-dG was also measured as an indicator of oxidative stress in normal and diabetic rats; however, excreted 8-oxo-dG in diabetic animals was not statistically different (P>0.05) from controls.
# [2] = system: CEdG levels from tissue-extracted DNA; assay: CEdG in tissue-extracted DNA from organs of Zucker fatty rats; assay type: in vivo, Zucker rat; details: liver, pancreas and kidney, after LR-90 treatment
# Procedure: Calf thymus or tissue-extracted DNA (100 μg) was dissolved in 80 μL of autoclaved 18.2 MΩ H2O containing 20 μL of sodium acetate (100 mM, pH 5.5), 20 μL of 1×TBE, 1.5 μL of 50 mM ZnCl2, and 2.37 μL of a 100 mM AG or D-P stock solution. DNA was denatured at 95° C. for 5 min on a PCR heating block and then brought to 4° C. for 5 min. After equilibration to 45° C., 1.5 μL of 10 U/μL nuclease P1 was added. Alkaline phosphatase (4 μL of 8 U/μL), 1 U of bovine phosphodiesterase, and 14 μL of 100 mM CaCl2 were added after 1 hour, and the hydrolysis/dephosphorylation was continued for another 7 hours. DNA concentrations were determined by UV spectroscopy (1 OD260=50 μg/ml) and samples were stored at −80° C. prior to MS analyses. A 5 μL aliquot of digest was diluted to 200 μL and used for quantitation of 2′-deoxyguanosine by HPLC integration using a Beckman C18 reverse phase (25 cm×4.6 mm) column (Fullerton, Calif.). […]
# The Zucker rat is a morbidly obese, hyperinsulinemic model for Type 2 diabetes resulting from homozygous knockout of the leptin receptor. In order to determine whether elevated circulating glucose in the Zucker rat correlates with increased tissue DNA glycation, CEdG levels from tissue-extracted DNA were measured in selected organs and compared to lean controls and to Zucker rats treated with the glycation inhibitor LR-90. […]
# calf thymus DNA = assay: Artifactual CEdG formation during DNA workup with carbonyl scavenger (calf thymus DNA)
# Procedure: Calf thymus or tissue-extracted DNA (100 μg) was dissolved in 80 μL of autoclaved 18.2 MΩ H2O containing 20 μL of sodium acetate (100 mM, pH 5.5), 20 μL of 1×TBE, 1.5 μL of 50 mM ZnCl2, and 2.37 μL of a 100 mM AG or D-P stock solution. DNA was denatured at 95° C. for 5 min on a PCR heating block and then brought to 4° C. for 5 min. After equilibration to 45° C., 1.5 μL of 10 U/μL nuclease P1 was added. Alkaline phosphatase (4 μL of 8 U/μL), 1 U of bovine phosphodiesterase, and 14 μL of 100 mM CaCl2 were added after 1 hour, and the hydrolysis/dephosphorylation was continued for another 7 hours. DNA concentrations were determined by UV spectroscopy (1 OD260=50 μg/ml) and samples were stored at −80° C. prior to MS analyses. A 5 μL aliquot of digest was diluted to 200 μL and used for quantitation of 2′-deoxyguanosine by HPLC integration using a Beckman C18 reverse phase (25 cm×4.6 mm) column (Fullerton, Calif.). Separation was achieved isocratically using a mobile phase of 6% MeOH, 0.1% acetic acid in water.
# Commercial grade calf thymus DNA was used as a model substrate for developing a protocol for CEdG quantitation in double-stranded DNA. […] Concentrations of AG from 0.5 to 50 mM were added prior to workup, and CEdG levels were measured in order to determine the optimal concentration required to achieve stable, reproducible levels. […]
# physchem = details: buffer, pH 2.4, half-life for depurination
# Procedure: as §1, §2
# [3] = system: DNA extracted from breast tumor or adjacent tissue; assay: Artifactual CEdG formation during DNA isolation from human breast tumor and adjacent tissue with carbonyl scavenger; details: 10 mM D-penicillamine in two aliquots during cell lysis/DNA isolation and hydrolysis/dephosphorylation
# Procedure: Breast tumor and adjacent normal tissue were obtained from the frozen tumor bank of the City of Hope Pathology Core. A pea-sized section (˜100 mg) of tissue was minced and suspended in 1.2 mL of digestion buffer (100 mM NaCl, 10 mM Tris HCl, pH 8, 25 mM EDTA, pH 8, 0.5% SDS, 0.2 mg/mL proteinase K, 10 mM D-penicillamine) and incubated at 50° C. in a water bath for 12-18 h. DNA was then extracted using an equivalent volume of phenol/chloroform/isoamyl alcohol (25:24:1). The aqueous fraction was separated and 0.5 volumes of ammonium acetate and 2 volumes of 100% ethanol were added. The DNA was spooled, washed twice with 70% ethanol, pelleted, and resuspended in autoclaved 18.2 MΩ water. The enzymatic hydrolysis was carried out as described above.
compound,measurement,setting,value
"CC(Nc1nc2c(ncn2[C@H]2C[C@H](O)[C@@H](CO)O2)c(=O)[nH]1)C(=O)O (single isomer, unassigned) [CEdG-A, N^2-(1-carboxyethyl)-2′-deoxyguanosine]",half-life at 1.25 mM,"[1]; 1 M acetic acid solution, pH 2.4, half-life for depurination, 1 M AcOH (pH 2.4), HPLC",~12.5 h
same,racemization of the sidechain stereocenter / interconversion of isomers,[1],no interconversion
CC(C)(Oc1ccc(NC(=O)Nc2ccc(Cc3ccc(NC(=O)Nc4ccc(OC(C)(C)C(=O)O)cc4)c(Cl)c3)cc2Cl)cc1)C(=O)O [LR-90],adduct level in urine,"urinary CEdG; diabetic rats, LR-90 25 mg/L",comparable to that of non-diabetic animals
same,decrease in CEdG titer,"urinary CEdG; diabetic rats, LR-90 ad libitum 2.5 mg/L, 24 hr urine",2.3 fold
same,reduction in CEdG with increasing concentrations,"urinary CEdG; diabetic rats, LR-90 ad libitum 2.5-50 mg/L, urine",dose dependent reduction in CEdG
same,effect on CEdG levels in normal controls,"urinary CEdG; non-diabetic rats, LR-90 at doses up to 50 mg/L",no significant effect
same,change of CEdG levels in tissue DNA,[2],net lowering of CEdG levels
"N=C(N)NN [AG, aminoguanidine]",measured CEdG levels after mock proteolysis and hydrolysis with scavenger,"calf thymus DNA; 10 mM AG in two aliquots prior to mock lysis and hydrolysis/dephosphorylation, 80-100 CEdG/10^6 guanines without scavenger",drop in measured CEdG levels
same,adduct levels after scavenger addition prior to sample processing,"calf thymus DNA; 10 mM AG, hydrolysis/dephosphorylation only, 60-66 CEdG/10^6 dG without scavenger",45-50 CEdG/10^6 guanines
"Nc1nc2c(ncn2[C@H]2C[C@H](O)[C@@H](CO)O2)c(=O)[nH]1 [dG, 2′-deoxyguanosine]",half-life at 1.25 mM,physchem,7.33 h
"CC(Nc1nc2c(ncn2[C@H]2C[C@H](O)[C@@H](CO)O2)c(=O)[nH]1)C(=O)O (single isomer, unassigned) [CEdG-B, N^2-(1-carboxyethyl)-2′-deoxyguanosine]",half-life for depurination,"[1]; 1 M AcOH (pH 2.4), HPLC",~8.33 h
same,racemization of the sidechain stereocenter / interconversion of isomers,[1],no interconversion
CC(C)(S)[C@@H](N)C(=O)O [D-penicillamine],artifactual CEdG formation,[3],artifactual formation was inhibited
